Source: patent US7829283B2, “Methylation of estrogen receptor alpha and uses thereof” (John Wayne Cancer Institute, priority 2006, dated 2010)

Key:
[1] = system: ER-α mRNA expression in MCA melanoma cell line; assay: ER-α mRNA re-expression by RT-PCR in melanoma cell lines after 5-Aza and TSA treatment; format: cell-based, human; details: data not shown
Experimental: To confirm down-regulation of ER-α expression by hypermethylation of the ER-α promoter region, cell lines were treated with the DNA-demethylating agent, 5-Aza, and the HDAC inhibitor, TSA. In combination with 5-Aza treatment, TSA can up-regulate the mRNA expression of genes silenced due to hypermethylation (26, 27). The MCF-7 cell line was used as an ER-α positive control and the MCA cell line was used as an ER-α negative control. Cell lines were maintained in RPMI 1640 medium supplemented with heat-inactivated 10% fetal bovine serum (FBS), penicillin G, and streptomycin (100 U/ml). Cells were treated with 1000 nM TSA for 24 hr (Wako Biochemicals, Osaka, Japan) and 1000 nM 5-Aza for five days (Sigma Chemical Co., St Louis, Mo.). After treatment with 5-Aza and TSA, melanoma cells were washed with phosphate buffered saline (PBS) and harvested with 0.25% trypsin-0.53 mM EDTA (Gibco, Auckland, N.J.). The mRNA expression level of ER-α was assessed by RT-PCR before and after 5-Aza and TSA treatment. […] The RNA was quantified and assessed for purity using ultraviolet spectrophotometry and the RIBOGreen detection assay (Molecular Probes, Eugene, Oreg.). The expression of mRNA for GAPDH, an internal reference housekeeping gene, was assessed by RT-PCR on all RNA samples to verify the integrity of RNA and to indicate equal loading of PCR products for gel electrophoresis. […]

[2] = system: melanoma cells; details: in vitro experiments; cited from earlier work
[3] = system: advanced melanoma; details: chemotherapy and BC regimens; cited from earlier work

SMILES | ER-α mRNA expression, single agent versus need for the second agent [1] | growth inhibition of melanoma cells in vitro [2] | overall survival in advanced melanoma [3]
CC(/C=C/C(=O)NO)=C\[C@@H](C)C(=O)c1ccc(N(C)C)cc1 [TSA, trichostatin A] | necessary to significantly increase expression above pretreatment levels |  | 
Nc1ncn([C@H]2C[C@H](O)[C@@H](CO)O2)c(=O)n1 [5-Aza, 5-aza-2-deoxycytidine] | did not significantly increase |  | 
CC/C(=C(\c1ccccc1)c1ccc(OCCN(C)C)cc1)c1ccccc1 [tamoxifen] |  | effective growth inhibitor | has not been shown to significantly improve overall survival
